Holding throughout (assay type): cell-based
For data set [1], the system named is human red blood cells (hRBC). As to the kind of experiment: Hemolysis. The following applies: red cells of human, 1 h, 200. On the procedure:
The peptides were tested for their hemolytic activity against human red blood cells (hRBC). Fresh hRBC were washed four times with phosphate buffered saline (PBS) and centrifuged for 10 min at 3000×g. Compounds (200 μg/mL) were incubated with 20% hRBC (v/v) for 1 h at 37° C. and shaking at 300 rpm. A value of 0% and 100% cell lysis, respectively, was determined by incubation of hRBC in the presence of PBS containing 10% water and 2% Triton X-100 in H2O, respectively. The samples were centrifuged, the supernatants were ˜7.5-fold diluted in PBS buffer and the optical densities (OD) were measured at 540 nm and blank corrected. The 100% lysis value (OD540Triton X-100) gave an OD540 of approximately 0.5-1.0.
Percent hemolysis was calculated as follows: (OD540peptide/OD540Triton X-100)×100%.

The test system of data set [2] is Escherichia coli ATCC 25922. The following applies: ATCC 25922. How it is done:
(§1) The in vitro antimicrobial activities of the peptides were determined in 96-well plates (Greiner, polystyrene) by the standard CLSI broth microdilution method (Clinical and Laboratory Standards Institute 2014. Performance standards for antimicrobial susceptibility testing, 24th informational supplement. Approved standard CLSI M100-S24; Clinical and Laboratory Standards Institute, Wayne, Pa.). The following microorganisms were used to determine antibiotic activity of the peptides: Escherichia coli ATCC 25922, Klebsiella pneumoniae SSI #3010^a), Acinetobacter baumannii DSM 30008, Pseudomonas aeruginosa ATCC 27853 and the clinical isolates Escherichia coli 926415^b), Klebsiella pneumoniae 968733^b), Acinetobacter baumannii 872842^b), Enterobacter cloacae 848840^b) and Escherichia coli MCR-1 Af45^c). Before preparation of inocula, Escherichia coli MCR-1 Af45 was subcultured on Mueller-Hinton II (MH-cation adjusted) agar containing 2 μg/mL colistin. ^a) Obtained from Statens Serum Institut (SSI), Copenhagen, Denmark^b) Obtained from International Health Management Associates, Inc. (IHMA Europe Sàrl), Epalinges, Switzerland^c) Obtained from Prof. Patrice Nordmann, University of Fribourg, Fribourg, Switzerland
(§2) Inocula of the microorganisms were diluted into Mueller-Hinton II (MH-cation adjusted) broth and compared with a 0.5 McFarland standard to give appr. 10^6 colony forming units (CFU)/mL. Aliquots (90 μL) of inoculum were added to 10 μL of MH-II broth+P-80 (Polysorbate 80, 0.002% final concentration, v/v) containing the peptide in serial two-fold dilutions. Antimicrobial activities of the peptides were expressed as the minimal inhibitory concentration (MIC) in μg/mL at which no visible growth was observed after 18-20 hours of incubation at 35° C.

Data set [3] has as its system Pseudomonas aeruginosa ATCC 27853. Particulars: ATCC 27853. On the procedure: as §1, §2
Data set [4] deals with Acinetobacter baumannii DSM 30008. Particulars: DSM 30008. How it is done: as §1, §2
Data set [5] relates to Klebsiella pneumoniae SSI #3010. Particulars: SSI #3010. On the procedure: as §1, §2

≈ marks a conversion by molar mass, not a printed value. Where a SMILES comes first, the peptide text is derived from it. Bridges are numbered along the chain shown (N, C = ends). Roman numbers before positions name the chains, in order. [ ]: non-standard residue; d: D form. Tle = CC(C)(C)[C@H](N)C(=O)O; NMeV = CN[C@H](C(=O)O)C(C)C; dDab = NCC[C@@H](N)C(=O)O; hSer = N[C@@H](CCO)C(=O)O; Orn = NCCC[C@H](N)C(=O)O; Dab = NCC[C@H](N)C(=O)O; Dap = NC[C@H](N)C(=O)O

As a reminder, the MIC is the lowest concentration found to suppress growth. A high value points to a need for much substance. For the molecule `CC(=O)N[C@@H](CCN)C(=O)N[C@H](C(=O)N[C@@H](CN)C(=O)N[C@@H](Cc1ccc(O)cc1)C(=O)N[C@H]1CSSC[C@@H](C(=O)N[C@H](C(N)=O)C(C)(C)C)NC(=O)[C@H](Cc2c[nH]c3ccccc23)NC(=O)[C@H](CO)NC(=O)[C@@H](CCN)NC(=O)[C@H](CCC(=O)N[C@@H](CCN)C(=O)N[C@H](C(=O)N[C@@H](CN)C(=O)N[C@H]2CCNC(=O)[C@H]([C@@H](C)O)NC(=O)[C@H](CCN)NC(=O)[C@H](CCN)NC(=O)[C@H](CC(C)C)NC(=O)[C@@H](CC(C)C)NC(=O)[C@H](CCN)NC2=O)[C@@H](C)O)NC1=O)C(C)C` [Ex. 13] (I: Ac-[Dab]V[Dap]YCE[dDab]SWC[Tle]-NH2 / II: [Dab]T[Dap][Dab][Dab][dL]L[Dab][Dab]T; disulfide I:5-I:10; amide I:6-II:N; lactam II:4-II:C), the “Hemolysis at 200 μg/mL” value in data set [1] was under 1%. In addition, the MIC in data set [2], in data set [3], in data set [4] and in data set [5] was 0.125 µg/mL (≈ 0.0538 µM) in each case.
Regarding `CC(=O)N[C@@H](CCN)C(=O)N[C@H](C(=O)N[C@@H](CN)C(=O)N[C@@H](Cc1ccc(O)cc1)C(=O)N[C@H]1CSSC[C@@H](C(=O)N[C@H](C(N)=O)C(C)(C)C)NC(=O)[C@H](Cc2c[nH]c3ccccc23)NC(=O)[C@H](CCN)NC(=O)[C@@H](CCN)NC(=O)[C@H](CCC(=O)N[C@@H](CCN)C(=O)N[C@H](C(=O)N[C@@H](CN)C(=O)N[C@H]2CCNC(=O)[C@H]([C@@H](C)O)NC(=O)[C@H](CCN)NC(=O)[C@H](CCN)NC(=O)[C@H](CC(C)C)NC(=O)[C@@H](CC(C)C)NC(=O)[C@H](CCN)NC2=O)[C@@H](C)O)NC1=O)C(C)C` [Ex. 14] (I: Ac-[Dab]V[Dap]YCE[dDab][Dab]WC[Tle]-NH2 / II: [Dab]T[Dap][Dab][Dab][dL]L[Dab][Dab]T; disulfide I:5-I:10; amide I:6-II:N; lactam II:4-II:C), the “Hemolysis at 200 μg/mL” value in data set [1] was under 1%. For the same molecule, the MIC in data set [2] came to 0.25 µg/mL (≈ 0.107 µM); in data set [3] it was 0.25 µg/mL (≈ 0.107 µM); in data set [4], 0.5 µg/mL (≈ 0.214 µM); in data set [5], 0.5 µg/mL (≈ 0.214 µM).
In the case of `CC(=O)N[C@H](C(=O)N[C@H]1CCCNC(=O)[C@@H](CC(N)=O)NC(=O)[C@H](C(C)(C)C)NC(=O)[C@H](CO)NC(=O)[C@H](Cc2c[nH]c3ccccc23)NC(=O)[C@H](CCO)NC(=O)[C@@H](CCN)NC(=O)[C@H](CCC(=O)N[C@@H](CCN)C(=O)N[C@H](C(=O)N[C@@H](CN)C(=O)N[C@H]2CCNC(=O)[C@H]([C@@H](C)O)NC(=O)[C@H](CCN)NC(=O)[C@H](CCN)NC(=O)[C@H](CC(C)C)NC(=O)[C@@H](CC(C)C)NC(=O)[C@H](CCN)NC2=O)[C@@H](C)O)NC(=O)[C@H](CO)NC(=O)[C@H](Cc2ccc(O)cc2)NC1=O)C(C)C` [Ex. 19] (I: Ac-V[Orn]YSE[dDab][hSer]WS[Tle][dN] / II: [Dab]T[Dap][Dab][Dab][dL]L[Dab][Dab]T; lactam I:2-I:C, II:4-II:C; amide I:5-II:N), the “Hemolysis at 200 μg/mL” value in data set [1] is listed as under 1%. For the same molecule, the MIC in data set [2] is 0.125 µg/mL (≈ 0.0536 µM); in data set [3] it was 0.25 µg/mL (≈ 0.107 µM); in data set [4], 0.125 µg/mL (≈ 0.0536 µM); in data set [5], 0.125 µg/mL (≈ 0.0536 µM).
As to `CC(=O)N[C@H](C(=O)N[C@H]1CCCNC(=O)[C@@H](CCCCN)NC(=O)[C@H](C(C)(C)C)NC(=O)[C@H](CO)NC(=O)[C@H](Cc2c[nH]c3ccccc23)NC(=O)[C@H](CCO)NC(=O)[C@@H](CCN)NC(=O)[C@H](CCC(=O)N[C@@H](CCN)C(=O)N[C@H](C(=O)N[C@@H](CN)C(=O)N[C@H]2CCNC(=O)[C@H]([C@@H](C)O)NC(=O)[C@H](CCN)NC(=O)[C@H](CCN)NC(=O)[C@H](CC(C)C)NC(=O)[C@@H](CC(C)C)NC(=O)[C@H](CCN)NC2=O)[C@@H](C)O)NC(=O)[C@H](CO)NC(=O)[C@H](Cc2ccc(O)cc2)NC1=O)C(C)C` [Ex. 30] (I: Ac-V[Orn]YSE[dDab][hSer]WS[Tle][dK] / II: [Dab]T[Dap][Dab][Dab][dL]L[Dab][Dab]T; lactam I:2-I:C, II:4-II:C; amide I:5-II:N), in data set [1], the “Hemolysis at 200 μg/mL” value is under 1%. In addition, the MIC in data set [2] turned out to be 0.0625 µg/mL (≈ 0.0266 µM); in data set [3] it was 0.25 µg/mL (≈ 0.106 µM); in data set [4] it was 0.125 µg/mL (≈ 0.0532 µM); in data set [5], 0.125 µg/mL (≈ 0.0532 µM).
Regarding `CC(C)C[C@@H]1NC(=O)[C@@H](CC(C)C)NC(=O)[C@H](CCN)NC(=O)[C@@H](NC(=O)[C@H](CCN)NC(=O)[C@@H](NC(=O)[C@H](CCN)NC(=O)CC[C@@H]2NC(=O)[C@H](CCN)NC(=O)[C@H](Cc3ccc(O)cc3)NC(=O)[C@@H](NC(=O)[C@@H](N)C(C)C)CCC(=O)NCC[C@@H](C(=O)N[C@@H](CO)C(=O)O)NC(=O)[C@H](C(C)(C)C)NC(=O)[C@H](CO)NC(=O)[C@H](Cc3c[nH]c4ccccc34)NC(=O)[C@H]([C@@H](C)O)NC(=O)[C@@H](CCN)NC2=O)[C@@H](C)O)CCNC(=O)[C@H]([C@@H](C)O)NC(=O)[C@H](CCN)NC(=O)[C@H](CCN)NC1=O` [Ex. 56] (I: H-VEY[Dab]E[dDab]TWS[Tle][Dab]S-OH / II: [Dab]T[Dab][Dab][Dab][dL]L[Dab][Dab]T; lactam I:2-I:11, II:4-II:C; amide I:5-II:N), in data set [1], the “Hemolysis at 200 μg/mL” value was under 1%. For the same molecule, the MIC in data set [2] was determined as 0.5 µg/mL (≈ 0.208 µM); in data set [3] it was 0.5 µg/mL (≈ 0.208 µM); in data set [4], 1 µg/mL (≈ 0.415 µM); in data set [5], 1 µg/mL (≈ 0.415 µM).
Turning to `CN[C@H](C(=O)N[C@@H](CN)C(=O)N[C@@H](Cc1ccc(O)cc1)C(=O)N[C@H]1CSSC[C@@H](C(=O)N[C@H](C(=O)N[C@@H](C)C(=O)N[C@@H](CO)C(N)=O)C(C)(C)C)NC(=O)[C@H](Cc2c[nH]c3ccccc23)NC(=O)[C@H]([C@@H](C)O)NC(=O)[C@@H](CCN)NC(=O)[C@H](CCC(=O)N[C@@H](CCN)C(=O)N[C@H](C(=O)N[C@@H](CCN)C(=O)N[C@H]2CCNC(=O)[C@H]([C@@H](C)O)NC(=O)[C@H](CCN)NC(=O)[C@H](CCN)NC(=O)[C@H](CC(C)C)NC(=O)[C@@H](CC(C)C)NC(=O)[C@H](CCN)NC2=O)[C@@H](C)O)NC1=O)C(C)C` [Ex. 180] (I: H-[NMeV][Dap]YCE[dDab]TWC[Tle]AS-NH2 / II: [Dab]T[Dab][Dab][Dab][dL]L[Dab][Dab]T; disulfide I:4-I:9; amide I:5-II:N; lactam II:4-II:C), the “Hemolysis at 200 μg/mL” value in data set [1] is under 1%. In addition, the MIC came to 0.125 µg/mL (≈ 0.0525 µM) in data set [2], 0.125 µg/mL (≈ 0.0525 µM) in data set [3], 0.25 µg/mL (≈ 0.105 µM) in data set [4] and 0.5 µg/mL (≈ 0.21 µM) in data set [5].
In the case of `CN[C@H](C(=O)N[C@H](C(=O)N[C@@H](Cc1ccc(O)cc1)C(=O)N[C@H]1CSSC[C@@H](C(=O)N[C@H](C(=O)N[C@@H](C)C(=O)N[C@@H](CO)C(N)=O)C(C)C)NC(=O)[C@H](Cc2c[nH]c3ccccc23)NC(=O)[C@H](CCO)NC(=O)[C@@H](CCN)NC(=O)[C@H](CCC(=O)N[C@@H](CCN)C(=O)N[C@H](C(=O)N[C@@H](CCN)C(=O)N[C@H]2CCNC(=O)[C@H]([C@@H](C)O)NC(=O)[C@H](CCN)NC(=O)[C@H](CCN)NC(=O)[C@H](CC(C)C)NC(=O)[C@@H](CC(C)C)NC(=O)[C@H](CCN)NC2=O)[C@@H](C)O)NC1=O)[C@@H](C)O)C(C)C` [Ex. 183] (I: H-[NMeV]TYCE[dDab][hSer]WCVAS-NH2 / II: [Dab]T[Dab][Dab][Dab][dL]L[Dab][Dab]T; disulfide I:4-I:9; amide I:5-II:N; lactam II:4-II:C), the “Hemolysis at 200 μg/mL” value in data set [1] is recorded as under 1%. The MIC amounted to 0.125 µg/mL (≈ 0.0524 µM) in data set [2], 0.125 µg/mL (≈ 0.0524 µM) in data set [3], 0.25 µg/mL (≈ 0.105 µM) in data set [4] and 0.25 µg/mL (≈ 0.105 µM) in data set [5].

Source of the values: patent US11629171B2, “Beta-hairpin peptidomimetics” (POLYPHOR AG, priority 2017, dated 2023).
